The values that follow come from ChEMBL document CHEMBL5244255, “An insight on medicinal attributes of 1,2,4-triazoles” (Eur J Med Chem, 2020).

What is called pIC50 is the negative decadic logarithm of the IC50, by convention in mol/L. For orientation: ED50 means the dose that gives a 50% effect, or the effect in half of the subjects. One may read the IC50 as the concentration needed to halve the response being measured. As usually defined, the bioavailability is dose-corrected exposure relative to a reference, in per cent. As a reminder, the MIC is the lowest concentration that inhibits growth of the organism. What is called GI50 is the concentration that inhibits growth by half.

A short description of data set [1]: Inhibition of Plasmodium falciparum dihydrofolate reductase measured after 48 hrs.
Data set [2] deals with Bifunctional dihydrofolate reductase-thymidylate synthase (Plasmodium vivax, UniProt O02604). Briefly: Inhibition of Plasmodium vivax dihydrofolate reductase measured after 48 hrs.
Bifunctional dihydrofolate reductase-thymidylate synthase, sequence (O02604 whole entry): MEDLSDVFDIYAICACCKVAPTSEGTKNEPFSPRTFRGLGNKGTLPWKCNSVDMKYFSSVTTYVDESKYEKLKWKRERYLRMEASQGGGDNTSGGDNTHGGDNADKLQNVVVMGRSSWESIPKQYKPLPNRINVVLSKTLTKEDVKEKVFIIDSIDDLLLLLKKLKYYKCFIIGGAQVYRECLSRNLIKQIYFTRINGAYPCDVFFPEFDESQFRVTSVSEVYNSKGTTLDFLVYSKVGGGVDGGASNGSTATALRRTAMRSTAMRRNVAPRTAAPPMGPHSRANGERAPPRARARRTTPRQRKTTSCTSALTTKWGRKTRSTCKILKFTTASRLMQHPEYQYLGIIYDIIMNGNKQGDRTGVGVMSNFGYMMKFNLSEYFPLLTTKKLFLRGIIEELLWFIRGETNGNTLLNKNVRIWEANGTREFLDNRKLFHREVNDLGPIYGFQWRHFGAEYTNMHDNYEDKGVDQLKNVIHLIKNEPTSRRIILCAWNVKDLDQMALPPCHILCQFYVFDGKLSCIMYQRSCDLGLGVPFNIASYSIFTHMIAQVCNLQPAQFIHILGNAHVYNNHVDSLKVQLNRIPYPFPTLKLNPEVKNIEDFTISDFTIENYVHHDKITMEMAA
Data set [3] relates to Rattus norvegicus. Briefly: Antiinflammatory activity in rat assessed as reduction in edema at 5 to 20 mg/kg, po measured after 5 hrs relative to control. It is filed as functional. Also noted: scale not given: the % may be the effect or the level left. The settings on record: dose 5-20 mg/kg.
Data set [4] has as its system Cytomegalovirus. Briefly: Potency index, ratio of test compound IC50 to ganciclovir IC50 for antiviral activity against Cytomegalovirus. It is filed as functional.
Data set [5] relates to Cytomegalovirus. Put plainly: Antiviral activity against Cytomegalovirus infected in HFF cells […]. It is filed as functional, organism-based. The settings on record: Human betaherpesvirus 5, HFF.
The species entered for data set [6] is Mus musculus. Briefly: Antiseizure activity against ScPTZ-induced seizure in mouse. It is filed as functional. The conditions noted are these: route sc.
The species named for data set [7] is Mus musculus. Briefly: Anticonvulsant activity in mouse assessed as MES-induced seizures measured after 30 mins. It is filed as functional. The settings on record: 0.5 h.
Data set [8] relates to Human alphaherpesvirus 1. Briefly: Antiviral activity against Human alphaherpesvirus 1 infected in African green monkey Vero kidney cells assessed as plaque reduction at 80 uM relative to control. It is filed as functional. Set-up: scale not given: the % may be the effect or the level left.
Data set [9] has as its system BT-20. Put plainly: Potency index, ratio of test compound IC50 to cisplatin IC50 for antiproliferative against human BT-20 cells. It is filed as functional.
A short description of data set [10]: Anticancer activity against human SK-MEL-128 cells assessed as cell growth inhibition incubated for 48 hrs by MTT assay. It is filed as functional, cell-based. The settings on record: SK-MEL-128, 48 h. Background: Formazan colour is commonly taken as a measure of viable cells.
The subject of data set [11] is A549. Briefly: Anticancer activity against human A549 cells assessed as cell growth inhibition incubated for 48 hrs by MTT assay. It is filed as functional, cell-based. The settings on record: A549, 48 h.
In data set [12] the test system is DU-145. Briefly: Anticancer activity against human DU-145 cells assessed as cell growth inhibition incubated for 48 hrs by MTT assay. It is filed as functional, cell-based. The settings on record: DU-145, 48 h.
For data set [13], the system named is BT-20. Briefly: Anticancer activity against human BT-20 cells assessed as cell growth inhibition incubated for 48 hrs by MTT assay. It is filed as functional, cell-based. The settings on record: BT-20, 48 h.
Data set [14] has as its system Rattus norvegicus. Briefly: Antiinflammatory activity in rat assessed as reduction in xylene induced edema at 10 mg/kg, po by CPE test relative to control. It is filed as functional. Also noted: scale not given: the % may be the effect or the level left.
Data set [15] relates to HCT-116. Briefly: Anticancer activity against human HCT-116 cells assessed as cell growth inhibition.
Data set [16] relates to PC-3. Put plainly: Anticancer activity against human PC-3 cells assessed as cell growth inhibition. It is filed as functional, cell-based.
Data set [17] in a line: Oral bioavailability in mouse relative to control. It is filed as ADME, organism-based. The settings on record: in vivo.
Data set [18] can be described thus: Inhibition of Mycobacterium tuberculosis Shikimate dehydrogenase […]. It is filed as functional.
The test system of data set [19] is Leishmania infantum. Briefly: Antileishmanial activity against Leishmania infantum measured after 20 mins. It is filed as functional.
Data set [20] concerns Japanese encephalitis virus. Put plainly: Antiviral activity against Japanese encephalitis virus. The conditions noted are these: read-out: ED50 (the source's name). It is filed as functional.
Data set [21] relates to PC-3. Put plainly: Anticancer activity against human PC-3 cells assessed as cell growth inhibition incubated for 24 hrs by MTT assay. It is filed as functional, cell-based. The settings on record: PC-3, 24 h.
For data set [22], the system named is HCT-116. Put plainly: Anticancer activity against human HCT-116 cells assessed as cell growth inhibition incubated for 24 hrs by MTT assay. It is filed as functional, cell-based. The conditions noted are these: HCT-116, 24 h.
For data set [23], the system named is A549. Briefly: Anticancer activity against human A549 cells assessed as cell growth inhibition incubated for 24 hrs by MTT assay. It is filed as functional, cell-based. The conditions noted are these: A549, 24 h.
The test system of data set [24] is MCF7. Put plainly: Anticancer activity against human MCF7 cells assessed as cell growth inhibition incubated for 24 hrs by MTT assay. It is filed as functional, cell-based. The settings on record: MCF7, 24 h.
Data set [25] relates to HOP-92. Put plainly: Anticancer activity against human HOP-92 cells assessed as cell growth inhibition incubated for 48 hrs by SRB assay. It is filed as functional. A general note: In SRB staining, fixed cells bind dye roughly in proportion to their protein.
The subject of data set [26] is A498. Briefly: Anticancer activity against human A498 cells assessed as cell growth inhibition incubated for 48 hrs by SRB assay. It is filed as functional.
The test system of data set [27] is U-251. Put plainly: Anticancer activity against human U-251 cells assessed as cell growth inhibition incubated for 48 hrs by SRB assay. It is filed as functional.
For data set [28], the system named is NCI-H460. Put plainly: Anticancer activity against human NCI-H460 cells assessed as cell growth inhibition incubated for 48 hrs by SRB assay. It is filed as functional.
In data set [29] the test system is LOX IMVI. Briefly: Anticancer activity against human LOX IMVI cells assessed as cell growth inhibition incubated for 48 hrs by SRB assay. It is filed as functional.
The subject of data set [30] is HCT-116. Put plainly: Anticancer activity against human HCT-116 cells assessed as cell growth inhibition incubated for 48 hrs by SRB assay. It is filed as functional.
In data set [31] the test system is Rattus norvegicus. Put plainly: Antiinflammatory activity in rat assessed as reduction in xylene induced edema relative to control. It is filed as functional. Also noted: scale not given: the % may be the effect or the level left.
The nature of data set [32]: Inhibition of Plasmodium falciparum dihydrofolate reductase.
In data set [33] the test system is Mycobacterium tuberculosis. Put plainly: Antimycobacterial activity against Mycobacterium tuberculosis H37Rv by test tube dilution technique. It is filed as functional.
The test system of data set [34] is Mus musculus. Put plainly: Anticonvulsant activity in po dosed mouse assessed as MES-induced seizures. It is filed as functional.
The nature of data set [35]: Protection index, ratio of TD50 for neurotoxicity in po dosed mouse to ED50 for anticonvulsant activity in ip dosed mouse. The settings on record: in vivo, read-out: Ratio TD50/ED50. It is filed as toxicity, organism-based.
In data set [36] the test system is Middle East respiratory syndrome-related coronavirus. Put plainly: Antiviral activity of Middle East respiratory syndrome coronavirus. It is filed as functional, organism-based.

pIC50: −log10 of the molar value. Values after ≈ are worked out from the molar mass of the structure shown.

For the compound `CC1=NC2NC(CC(F)(F)F)=NN2C(Nc2ccc(C(F)(F)F)nc2)=C1` (configuration not stated), the pIC50 in data set [1] was 7.28; in [2], 7.03.
For the compound `O=C(CSc1nncn1CC(=O)N/N=C/c1ccc(O)cc1)N/N=C/c1ccc(O)cc1`, the Activity in [3] is reported as 64.44%.
For `Cc1cc2nc(Cc3nncn3-c3ccccn3)c(=O)[nH]c2cc1C`, the “Ratio IC50” value in [4] is listed as above 3000. This compound also showed a pIC50 in data set [5] above 7.30.
`O=C(CSc1nc[nH]n1)Nc1nc2ccc(OCc3cccc(F)c3)cc2s1`: the ED50 came to 76 mg/kg in data set [6] and 50.8 mg/kg in data set [7].
Take `CCOC(=O)CSc1nc2n(n1)C(=O)C(CCCl)C(C)N2` (configuration not stated): in data set [8], the Activity was found to be 50%.
`Nn1c(Cc2ccccc2Br)nn(CC(=O)NNC(=O)c2cc3cc(Cl)cc(Cl)c3oc2=O)c1=O`: in [9], the “Ratio IC50” value is on record as 5.2. Besides, the IC50 in [10], in data set [11], in [12] and in [13] was 3.1 µg/mL (≈ 5.32 µM) each time.
For `Fc1cc(Cl)cc(-c2nn3c(CN4c5ccccc5Sc5ccccc54)nnc3s2)c1`, the Activity in data set [14] amounted to 83.06%.
On to `O=c1c2c3c(sc2n2c(CN4CCN(c5ccc(Cl)cc5)CC4)nnc2n1Cc1ccccc1)CCCC3`, for which the pIC50 in [15] was 5.18.
Regarding `O=C(CSc1nnc2n(Cc3ccccc3)c(=O)c3c4c(sc3n12)CCCC4)N1CCN(c2ccccc2)CC1`, the pIC50 in [16] was 5.26.
`COc1ccc(OCc2nn3c(-c4ccc(Br)cc4)nnc3s2)cc1` came in with a bioavailability in data set [17] of 14%. Moreover, the “log(activity)” value in [18] was 1.7.
Consider `Nn1c(S)nnc1Cn1nc(Cc2cccs2)n(N)c1=O`, for which it took 625 µg/mL (≈ 1930 µM) to inhibit growth in data set [19] (MIC).
For `CN1C(=O)c2ccccc2N(c2cccc(-c3nnc4n3NC(c3ccccc3)=C(c3ccccc3)S4)c2)C1c1ccccc1` (configuration not stated), the EC50 in [20] came out at 7.8 µg/mL (≈ 12.9 µM).
Regarding `CC1CNCC(C)N1c1ccc(Nc2nccc(N3CCn4c(nnc4-c4ccc(F)c(Cl)c4)C3)n2)cc1` (configuration not stated), the pIC50 in data set [21] is 5.26; in [22], 5.44; in data set [23], 5.67; in data set [24], 5.43.
For the compound `Clc1ccccc1-c1nnc2c(Cc3ccccc3)nc3ccccc3n12`, the GI50 in data set [25] stood at 3.91 µM; in data set [26] it was 1.8 µM; in [27], 1.96 µM; in data set [28], 3.45 µM; in [29], 5.18 µM; in [30], 3.49 µM.
Regarding `O=c1c2sccc2n2cnnc2n1-c1ccc(Cl)cc1`, the Activity in data set [31] was found to be 50.48%.
In data set [32], `CC1=C(C(=O)Nc2ccc(Br)cn2)C(c2cn(-c3ccccc3)nc2-c2ccc(Cl)cc2)n2ncnc2N1` (configuration not stated) gave an IC50 of 0.023 µg/mL (≈ 0.0391 µM).
Turning to `Fc1ccc(-c2nn3c(COc4cnccn4)nnc3s2)cc1`, the MIC in data set [33] was 1 µg/mL (≈ 3.05 µM).
Consider `O=c1c2ccccc2n2cnnc2n1-c1ccc(Br)cc1`, for which the median effective dose (ED50) in data set [34] turned out to be 94.6 mg/kg. The selectivity ratio in data set [35] is above 26.
In data set [36], `Sc1nnc(NNc2ccc(I)cc2)n1NC1C=CCC1` (configuration not stated) gave a pIC50 of 6.33.
Take `O=C(CCSc1nnc2n(Cc3ccccc3)c(=O)c3c4c(sc3n12)CCCC4)N1CCN(c2ccccc2)CC1`: the pIC50 in data set [15] was 5.21.
